The text below walks through data of patent US11103532B2, “Chimeric protein” (AUTOLUS LIMITED, priority 2015, dated 2021).

The subject of the test is T-cells. Description: Deletion of chimeric protein-expressing T-cells with Rapamycin (Annexin-V/7AAD flow cytometry). Type of test: cell-based. To be noted: 48 hours; for deletion of transduced T-cells: different concentrations of Rapamycin, live cells expressing fluorescent proteins; for deletion of T-cells expressing both eGFP and eBFP2: lowest concentration of Rapamycin, co-transduced pair. On the procedure:
T-cells were either transduced with eGFP alone (FIG. 2a), or co-transduced with FKBP12-dCasp9 (co-expressing eGFP) and FRB-dCasp9 (co-expressing eBFP2) (FIG. 2b). T-cells were intentionally only partially transduced so that the non-transduced T-cells would act as internal controls. […] After 48 hours, cells were stained with Annexin-V and 7AAD and analysed by flow cytometry looking at the proportion of live cells which were expressing fluorescent proteins.
FIG. 3—Function of RapCasp9 variants. T-cells were transduced with (a) eGFP alone; (b) double transduced with FKBP12-Casp9 and FRB-Casp9 co-expressed with eGFP and eBFP2 respectively; (c) transduced with FRB-FKBP12-Casp9 and (d) transduced with FRB-Casp9-FKBP12 and (e) FBP12-Casp9-2A-FRB-FRBw. Only a proportion of cells were transduced, the negative cells acted as an internal negative control. […] T-cells were then stained with Annexin-V and 7AAD and analysed by flow-cytometry. eGFP vs eBFP2 is shown on live cells as determined by Annexin-V and 7AAD staining.
T-cells were transduced with the different constructs. For the two-molecule rapCasp9 (FIG. 1a), T-cells were transduced with two vectors: one coding for FKBP12-Casp9 co-expressed with the green fluorescent protein eGFP by means of an internal ribosome entry sequence, and the other coding for FRB-Casp9 co-expressed with the blue fluorescent protein eBFP2. For the one molecule rapCasp9 (FIG. 1b), T-cells were transduced with just one vector coding for the respective rapCasp9 which are co-expressed eGFP. A construct which provided FKB12-Casp9 and FRB-FRBw was encoded in a tri-cistronic cassette whereby the FKBP12-Casp9 and FRB-FRBw were co-expressed using a FMD-2A like peptide and eGFP was co-expressed with an IRES. The T-cells were intentionally only partially transduced so within the cell culture a proportion of cells remained non-transduced to act as an internal negative control.
Following this, T-cells were stained with Annexin-V and 7AAD and analysed by flow-cytometry. By gating on the live cells, and interrogating the population of cells expressing fluorescent proteins, survival of the transduced and non-transduced populations could be clearly measured.

With “FKBP12-Casp9/FRB-FRBw: Caspase 9 catalytic domain fused to FKBP12, co-expressed with a fusion of two copies of FRB”, the “deletion of transduced T-cells” value is listed as “effective deletion of single positive cells”.
“FKBP12-Casp9: catalytic domain of Casp9 fused with FKBP12; tested co-expressed with FRB-Casp9”: the “deletion of transduced T-cells” value is recorded as “effective deletion of only double positive cells”; the “deletion of T-cells expressing both eGFP and eBFP2” value was “very effectively deleted”.
In the case of “FKBP12-FRB-Casp9: single construct where FKBP12 and FRB are fused together and then fused to the catalytic domain of Casp9 by a flexible linker”, the “deletion of transduced T-cells” value is on record as “effective deletion of single positive cells”.

B1: FRB-Casp9: catalytic domain of Casp9 fused with FRB; tested co-expressed with FKBP12-Casp9 (protein)
chain: MASRILWHEMWHEGLEEASRLYFGERNVKGMFEVLEPLHAMMERGPQTLKETSFNQAYGRDLMEAQEWCRKYMKSGNVKDLLQAWDLYYHVFRRISKLEYSGGGSGVDGFGDVGALESLRGNADLAYILSMEPCGHCLIINNVNFCRESGLRTRTGSNIDCEKLRRRFSSLHFMVEVKGDLTAKKMVLALLELAQQDHGALDCCVVVILSHGCQASHLQFPGAVYGTDGCPVSVEKIVNIFNGTSCPSLGGKPKLFFIQACGGEQKDHGFEVASTSPEDESPGSNPEPDATPFQEGLRTFDQLDAISSLPTPSDIFVSYSTFPGFVSWRDPKSGSWYVETLDDIFEQWAHSEDLQSLLLRVANAVSVKGIYKQMPGCFNFLRKKLFFKTSAS
modifications: Chimeric protein FRB-dCasp9
For the molecule B1, the “deletion of transduced T-cells” value was “effective deletion of only double positive cells”; the “deletion of T-cells expressing both eGFP and eBFP2” value was “very effectively deleted”.
